{"source": "patent US5141943A", "about": "“5-benzyl barbiturate derivatives” (Brown University Research Foundation, priority 1990, dated 1992)", "key": {"uridine phosphorylase [1]": {"molecular_target": "uridine phosphorylase", "assay": "Inhibition of uridine phosphorylase (mouse liver cytosol, uridine substrate)", "format": "biochemical", "conditions": "for Ki: uridine 1 mM, pH 8, 37° C., 30 min, Dixon plots, read-out: APP Ki (apparent inhibition constant); for uridine phosphorylase inhibition compared with uracil / acyclouridine counterpart or analogue: comparison in words from Table I", "description": "The activity of the 5-benzyl barbiturates of this invention as inhibitors of uridine phosphorylase was measured essentially following the procedure of Naguib et al. (vol. 36, Biochem. Pharmac. pp. 2195-2201 (1987)), the disclosure of which is incorporated herein by reference. An abridged description of the protocol is described below.\nMouse livers for these experiments were obtained from Swiss Albino (CDl) mice (Charles River Laboratories, Boston, Mass.). The mice were killed by cervical dislocation, and the livers removed and washed with ice-cold normal saline (0.9%) before any further manipulation.\nThe saline solution was wiped off the organs with tissue paper, and the organs weighed and then cut into smaller pieces in ice-cold homogenization buffer (3:1, v/w) containing 20 mM potassium phosphate (pH 8), 1 mM EDTA, and 1 mM mercaptoethanol. The livers were then homogenized with a polytron homogenizer (Brinkman), and the homogenates centrifuged at 105,000 g for 1 hr at 4°. The supernatant fluids (cytosol) were collected and used as the enzyme source.\nThe assay mixture contained 20 mM potassium phosphate (pH 8), 1 mM EDTA, 1 mM mercaptoethanol, substrate (uridine, 9 mCi/mmol) and 40 μl of enzyme preparation in a final volume of 80 μl. Under these conditions the activity was linear with time and amount of enzyme. Apparent Ki values were estimated from Dixon plots (1/v vs[I]) of the data by a computer program with least squares fitting, using uridine (1 mM) and five different concentrations of the inhibitor within the range of 0.0625 μM and 1.0 μM.\nIncubation was carried out at 37° C., for 30 min. The reaction was terminated by immersing the reaction tubes (1 ml Eppendorf tubes) in boiling water for 1 min. and then freezing the reaction tubes for at least 20 min. Proteins were removed by centrifugation, and 5 μl of the supernatant fluid spotted on silica gel TLC plates which had been prespotted with 5 μl of a standard mixture of 10 mM each uridine and uracil. The plates were then developed in a mixture of chloroform and methanol (90:10, v/v). Uridine and uracil were identified by UV quenching. (Rf values for uridine and uracil are 0.09 and 0.39, respectively.) Spots were then cut out and counted in 20 ml of Omnifluor-based scintillant.\nProtein concentrations were determined by the method of Bradford, (Bradford, M. M., vol. 72, Analyt. Biochem. p. 248 (1976)) as described by the Bio-Rad Laboratories (Bio-Rad Laboratories, Bulletin 1069, Bio-Rad Laboratories, Richmond, Calif. (1979)), using bovine […] as a standard."}, "[2]": {"assay": "Solubility in water at room temperature", "format": "physicochemical"}, "[3]": {"conditions": "prolonged AZT administration, or high doses of uridine (background); cited from earlier work"}, "[4]": {"conditions": "in water at room temperature; acyclouridines of the art (background); cited from earlier work"}, "uridine phosphorylase [5]": {"molecular_target": "uridine phosphorylase", "conditions": "*calculated from Niedzwicki, J. G. et al.; read-out: APP Ki (apparent inhibition constant); cited from earlier work"}, "[6]": {"test_system": "human bone marrow progenitor cells (HBMP)", "conditions": "Somadossi et al. 1988; cited from earlier work"}, "[7]": {"conditions": "water, in water, at room temperature, read-out: SOL. (solubility)"}}, "note": "Where two headings read alike, the source gives them in different places."}
{"compound": "5-benzyloxybenzylacetyl-1-[(1-hydroxy-2-ethoxy)methyl] barbiturate [BBCAB]", "values": [{"measurement": "Ki", "setting": "uridine phosphorylase [1]", "result": 2.6, "unit": "µM"}, {"measurement": "SOL. (solubility)", "setting": "[2]; in water, at room temperature", "result": "> 3000", "unit": "µM"}]}
{"compound": "Cc1cn([C@H]2C[C@H](N=[N+]=[N-])[C@@H](CO)O2)c(=O)[nH]c1=O", "note": "[AZT, 3'-azido-3'-deoxythymidine]", "values": [{"measurement": "toxic side effects", "setting": "[3]", "result": "suppression of bone marrow growth in the patient"}]}
{"compound": "O=c1[nH]c(=O)n(COCCO)cc1Cc1ccccc1", "note": "[BAU]", "values": [{"measurement": "Ki", "setting": "uridine phosphorylase [1]", "result": 3.2, "unit": "µM"}, {"measurement": "solubility", "setting": "[2]; water", "result": 1000, "unit": "µM"}, {"measurement": "solubility in water", "setting": "[4]", "result": "about 1 mM"}]}
{"compound": "O=C1NC(=O)C(Cc2ccccc2)C(=O)N1", "note": "[BB, 5-benzyl barbiturate]", "values": [{"measurement": "Ki", "setting": "uridine phosphorylase [1]", "result": 44, "unit": "µM"}, {"measurement": "solubility", "setting": "[2]; [7]", "result": "> 3000", "unit": "µM"}]}
{"compound": "O=C1NC(=O)N(COCCO)C(=O)C1Cc1cccc(OCc2ccccc2)c1", "note": "(centres unmarked) [BBAB, 5-benzyloxybenzyl-1-[(1-hydroxy-2-ethoxy)methyl] barbiturate]", "values": [{"measurement": "uridine phosphorylase inhibition compared with uracil / acyclouridine counterpart or analogue", "setting": "uridine phosphorylase [1]", "result": "further improves inhibition"}, {"measurement": "Ki", "setting": "uridine phosphorylase [1]", "result": 0.8, "unit": "µM"}, {"measurement": "water solubility compared with acyclouridines", "setting": "[2]; in water, at room temperature", "result": "significantly greater than that of the acyclouridines"}, {"measurement": "solubility", "setting": "[2]; [7]", "result": "≥ 3000", "unit": "µM"}]}
{"compound": "O=c1[nH]c(=O)n(COCCO)cc1Cc1cccc(OCc2ccccc2)c1", "note": "[BBAU, 5-benzyl-oxybenzyl-acyclouridine]", "values": [{"measurement": "Ki", "setting": "uridine phosphorylase [1]", "result": 1.1, "unit": "µM"}, {"measurement": "solubility", "setting": "[2]; water", "result": "≤ 1000", "unit": "µM"}, {"measurement": "solubility in water", "setting": "[4]", "result": "about 1 mM"}]}
{"compound": "O=C1NC(=O)C(Cc2cccc(OCc3ccccc3)c2)C(=O)N1", "note": "[BBB, 5-benzyloxybenzyl barbiturate]", "values": [{"measurement": "uridine phosphorylase inhibition compared with uracil / acyclouridine counterpart or analogue", "setting": "uridine phosphorylase [1]", "result": "significantly stronger uridine phosphorylase inhibitor than BBU"}, {"measurement": "Ki", "setting": "uridine phosphorylase [1]", "result": 3, "unit": "µM"}, {"measurement": "solubility", "setting": "[2]; [7]", "result": "> 3000", "unit": "µM"}]}
{"compound": "O=c1[nH]cc(Cc2cccc(OCc3ccccc3)c2)c(=O)[nH]1", "note": "[BBU, 5-benzyloxybenzyl uracil]", "values": [{"measurement": "solubility", "setting": "[2]; water", "result": "≤ 1000", "unit": "µM"}]}
{"compound": "O=c1[nH]cc(Cc2ccccc2)c(=O)[nH]1", "note": "[BU]", "values": [{"measurement": "solubility", "setting": "[2]; water", "result": "≤ 1000", "unit": "µM"}, {"measurement": "Ki", "setting": "uridine phosphorylase [5]", "result": 54, "unit": "µM"}]}
{"compound": "O=C1CC(=O)NC(=O)N1", "note": "[Barbiturate, barbituric acid]", "values": [{"measurement": "Ki", "setting": "uridine phosphorylase [1]", "result": "~1500", "unit": "µM"}, {"measurement": "solubility", "setting": "[2]; in water, at room temperature, read-out: SOL. (solubility)", "result": "> 3000", "unit": "µM"}]}
{"compound": "O=c1[nH]c(=O)n(COC(CO)CO)cc1Cc1cccc(OCc2ccccc2)c1", "note": "[HM-BBAU]", "values": [{"measurement": "solubility in water", "setting": "[4]", "result": "about 1 mM"}]}
{"compound": "COc1cccc(CC2C(=O)NC(=O)N(COCCOC(C)=O)C2=O)c1", "note": "(centres unmarked) [MBCAB, 5-Methoxybenzylacetyl acyclo barbiturate]", "values": [{"measurement": "Ki", "setting": "uridine phosphorylase [1]", "result": 1.9, "unit": "µM"}, {"measurement": "solubility", "setting": "[2]; [7]", "result": "> 3000", "unit": "µM"}]}
{"compound": "Nc1ccn([C@@H]2O[C@H](CO)[C@@H](O)[C@H]2O)c(=O)n1", "note": "[cytidine]", "values": [{"measurement": "reversal of toxic effects of AZT", "setting": "[6]", "result": "to a lesser extent"}]}
{"compound": "O=c1ccn([C@@H]2O[C@H](CO)[C@@H](O)[C@H]2O)c(=O)[nH]1", "note": "[uridine]", "values": [{"measurement": "toxic side effects", "setting": "[3]", "result": "toxic side effects, such as phlebitis and pyrogenic reactions"}, {"measurement": "reversal of toxic effects of AZT", "setting": "[6]", "result": "can reverse the toxic effects of AZT in human bone marrow progenitor cells (HBMP)"}]}
